This is an account of results in patent US8940863B2, “Selective anticancer chimeric peptides which bind neuropilin receptor” (Stella Pharma Corporation, priority 2008, dated 2015).

Non-standard residues stand in square brackets, D forms with d. Residues, ends and D or L forms follow the SMILES beside them.

For one experiment, the system named is T47D breast cancer cells. In words: Membrane permeabilization (calcein). The format is cell-based, human. To be noted: 10 μM, 0 to 15 minutes. On the procedure:
Furthermore, after addition of TfR-lytic chimeric peptide at concentration of 10 μM, the cells in calcein solution were observed after 0 minute, five minutes, 10 minutes and 15 minutes.

Experiment [1] deals with PE cell (pancreatic epidermal). In words: Cell viability assay (WST-8). It counts as cell-based. To be noted: 72 h. The source says: (§1) Correlation between IC50 values was observed.
In the next experiment the test system is COLO587. In words: Cell viability assay (WST-8). It counts as cell-based.
From the text: as §1

A further experiment relates to SN-19. In words: Cell viability assay (WST-8). The format is cell-based.
From the text: as §1

Experiment [2] deals with HC cell (hepatocyte cell). The experiment in a line: Cell viability assay (WST-8). It counts as cell-based, human. The following applies: 72 h.
From the text: as §1
For orientation: Formazan colour is commonly taken as a measure of viable cells.

For experiment [3], the system named is T47D. In words: Cell viability assay (WST-8). The format is cell-based, human. To be noted: for IC50: 72 h.
From the text: as §1

The subject of experiment [4] is T47D. The experiment in a line: Annexin V and caspase 3,7 flow cytometry. It counts as cell-based, human. To be noted: 10 μM, two hours. How it is done: T47D and PE cells were incubated with TfR-lytic chimeric peptide (10 μM) and lytic peptide (10 μM) for two hours. Annexin V (FIG. 26A) and caspase 3,7 activity (FIG. 26B) were detected in the green channel, and propidium iodide staining was detected in the red channel, and flow cytometry analysis was performed. In T47D cells treated with TfR-lytic chimeric peptide, the ratio of the right half panel showing Annexin V-positive cells and caspase 3,7-activated cells increased.
A general note: Flow cytometry measures light scatter and fluorescence of single cells or particles in a stream.

Another experiment concerns PE cells (normal cells). The experiment in a line: Annexin V and caspase 3,7 flow cytometry. It counts as cell-based. To be noted: 10 μM, two hours.
The next experiment deals with LNCaP. The following applies: for IC50: 72 h.
Experiment [5] deals with T47D. The experiment in a line: Short-exposure killing of cancer cells (WST-8). The format is cell-based, human. To be noted: 1 to 180 minutes exposure. On the procedure:
The cells were further cultured for 72 hours.

Another experiment has as its system MRC-5. The following applies: 72 h.
Another experiment deals with U937. The following applies: 72 h.
A further experiment has as its system OE19. The following applies: 72 h.
A further experiment concerns HEK293. The following applies: 72 h.
Another experiment relates to BxPC-3. The following applies: 72 h.

For orientation: IC50 means the midpoint of a concentration-inhibition curve. Lower therefore signals higher potency. In the case of `CSCC[C@H](NC(=O)[C@@H]1CCCN1C(=O)[C@@H]1CCCN1C(=O)[C@H](CCCNC(=N)N)NC(=O)[C@H](Cc1c[nH]cn1)NC(=O)[C@@H](N)[C@@H](C)O)C(=O)N[C@@H](Cc1c[nH]c2ccccc12)C(=O)N[C@@H](CO)C(=O)N1CCC[C@H]1C(=O)N[C@H](C(=O)N[C@@H](Cc1c[nH]c2ccccc12)C(=O)N1CCC[C@H]1C(=O)NCC(=O)NCC(=O)NCC(=O)N[C@@H](CCCCN)C(=O)N[C@@H](CC(C)C)C(=O)N[C@H](CC(C)C)C(=O)N[C@@H](CC(C)C)C(=O)N[C@@H](CCCCN)C(=O)N[C@H](CC(C)C)C(=O)N[C@@H](CC(C)C)C(=O)N[C@H](CCCCN)C(=O)N[C@H](CCCCN)C(=O)N[C@@H](CC(C)C)C(=O)N[C@@H](CC(C)C)C(=O)N[C@@H](CCCCN)C(=O)N[C@H](CC(C)C)C(=O)N[C@@H](CC(C)C)C(=O)N[C@@H](CCCCN)C(=O)N[C@@H](CCCCN)C(=O)N[C@@H](CCCCN)C(=O)O)C(C)C` [TfR-lytic peptide] (H-THRPPMWSPVWPGGGKL[dL]LK[dL]L[dK][dK]LLK[dL]LKKK-OH; N-terminus and C-terminus assumed), the “membrane permeation” value in the experiment on T47D breast cancer cells is “permeated the membrane was observed”. Further, the IC50 is more than 20 µM in experiment [1]; 6.9 µM with COLO587 (72 h); 8.2 µM in the experiment on SN-19 (72 h); more than 20 µM in [2]; 4.8 µM with T47D [3]; 6.8 µM with U251 (72 h). In addition, the IC50 in the experiment on LNCaP was 6.2 µM; in the experiment on MDA-MB-231 (72 h), 6.7 µM; in the experiment on MRC-5, more than 20 µM; in the experiment on SK-BR-3 (72 h), 5.3 µM. The “IC50 ratio Lytic/TfR-lytic” value in the experiment on COLO587 (COLO587) worked out at 2.0; in the experiment with SN-19 (SN-19), 3.1; with T47D [3] (T47D), 3.8; in the experiment on U251 (U251) it was 2.8; in the experiment on LNCaP (LNCaP), 2.7; in the experiment with MDA-MB-231 (MDA-MB-231) it was 4.4. The “IC50 ratio Lytic/TfR-lytic” value in the experiment with SK-BR-3 (SK-BR-3) is 5.0. For the same compound, in the experiment on T47D [4], the “ratio of Annexin V-positive cells and caspase 3,7-activated cells” value was “increased”. The “percentage of Annexin V-positive cells and caspase 3,7-activated cells” value in the experiment with PE cells (normal cells) was “did not increase”. Further, the “rapid killing of cancer cells” value in the experiment with T47D [5] was “rapidly kill T47D cancer cells”.

As for `CC(C)C[C@H](NC(=O)[C@H](CC(C)C)NC(=O)[C@@H](CCCCN)NC(=O)[C@@H](CCCCN)NC(=O)[C@H](CC(C)C)NC(=O)[C@@H](CC(C)C)NC(=O)[C@H](CCCCN)NC(=O)[C@H](CC(C)C)NC(=O)[C@@H](CC(C)C)NC(=O)[C@H](CC(C)C)NC(=O)[C@H](CCCCN)NC(=O)CNC(=O)CNC(=O)CNC(=O)[C@H](CCCNC(=N)N)NC(=O)[C@@H]1CCCN1C(=O)[C@@H]1CCCN1C(=O)[C@H](CC(C)C)NC(=O)[C@H](Cc1c[nH]c2ccccc12)NC(=O)[C@@H](NC(=O)[C@H](C)N)[C@@H](C)O)C(=O)N[C@@H](CCCCN)C(=O)N[C@H](CC(C)C)C(=O)N[C@@H](CC(C)C)C(=O)N[C@@H](CCCCN)C(=O)N[C@@H](CCCCN)C(=O)N[C@@H](CCCCN)C(=O)O` [VEGFR2-Lytic] (H-ATWLPPRGGGKL[dL]LK[dL]L[dK][dK]LLK[dL]LKKK-OH; N-terminus and C-terminus assumed), the IC50 in the experiment with U937 is 3.5 µM; in the experiment with OE19, 7.1 µM; in the experiment with T47D [3] it was 6.4 µM; in the experiment with HEK293, more than 20 µM; in the experiment on BxPC-3, 12.2 µM; with LNCaP it was 8.9 µM. The IC50 in the experiment with MRC-5 was more than 20 µM.
